From paper PMC11207040, “Synthesis and Biological Studies of New Temporin A Analogs Containing Unnatural Amino Acids in Position 7” (Pharmaceutics, 2024)
≈ marks a conversion by molar mass, not a printed value. Like-named read-outs stand apart in the source and are kept apart here. Non-standard residues stand in square brackets, D forms with d. Residues, ends and D or L forms follow the SMILES beside them. Orn = NCCC[C@H](N)C(=O)O

Columns and labels:
[1] = system: Escherichia coli NBIMCC 8785; assay type: cell-based; details: NBIMCC 8785, 24 h
Procedure: (§1) The parent peptide Temporin A and the novel analogs were subjected to tests against model strains Escherichia coli NBIMCC 8785, Bacillus subtilis NBIMCC 3562, Arthrobacter oxydans NBIMCC 9333, Pseudomonas aeruginosa NBIMCC 3700, and Candida albicans NBIMCC 74, for the assessment of their antimicrobial activity. The strains were acquired from the National Bank for Industrial Microorganisms and Cell Cultures (NBIMCC, Bulgaria). The strain E. coli 8785 was cultured in Luria-Bertani broth (LB, HiMedia, Mumbai, India); B. subtilis 3562—in nutrient broth (NB, HiMedia, Mumbai, India); A. oxydans 9333; P. aeruginosa 3700—in meat peptone agar (MPA) medium; and C. albicans 74—in yeast mold (YM) medium. An incubator shaker ES-20/60 (Biosan, Latvia) was used for the cultivation and was set to 30 °C for B. subtilis 3562, A. oxydans 9333, and C. albicans 74; and 37 °C for E. coli 8785 and P. aeruginosa 3700, with a 24 h shaking period at 120 rpm. The microbial cultures were then adjusted to a turbidity of 0.5 McFarland using a Grant-bio DEN-1B densitometer (Grant Instruments, Royston, UK) for further use.
(§2) The minimal inhibitory concentration (MIC) of the peptides was determined using the broth dilution method. Stock solutions of the peptides with a concentration of 10 mg/mL in 10% EtOH/H2O were prepared. Suspensions of the bacteria in the corresponding media were added to 96-well U-shaped bottom polystyrene plates (Deltalab S.L., Spain) and exposed to the peptide in the concentration range from 0 to 320 µg/mL, and a 10% EtOH/H2O control, diluted using the same scheme as the peptides, was also used. The plates were then incubated under aerobic conditions at the corresponding temperature for 24 h. The MIC (µg/mL) was assumed as the lowest concentration of the antimicrobial, where there was visible inhibition of the strain. The absorbance was measured at 630 nm (Microplate reader PKL PPC 142, Paramedical srl, Salerno, Italy). To determine the minimal bactericidal concentration (MBC) and minimal fungicidal concentration (MFC), 10 μL from concentrations greater than or equal to the MIC was placed on the corresponding solid nutrient medium. The Petri dishes were then incubated at 30 or 37 °C for 24 h. All experiments were conducted in a triplicate.

[2] = system: Bacillus subtilis NBIMCC 3562; assay type: cell-based
Procedure: as §1, §2

[3] = system: Candida albicans NBIMCC 74; assay type: cell-based; details: NBIMCC 74, 24 h
Procedure: as §1, §2

[4] = system: Pseudomonas aeruginosa NBIMCC 3700; assay type: cell-based; details: NBIMCC 3700, 24 h
Procedure: as §1, §2

[5] = system: Arthrobacter oxydans NBIMCC 9333; assay type: cell-based; details: 24 h
Procedure: as §1, §2

[6] = system: MDA-MB-231 cells; test: MTT antiproliferative assay, MDA-MB-231; assay type: cell-based, human; details: for IC50: MTT, 72 h, read-out: Mean IC50 ± SD, MDA-MB-231; for SI (Selectivity Index), MDA-MB-231: SI = IC50 MCF-12F/IC50 tumor cells
Procedure: (§3) The cell lines BALB 3T3 (mouse embryonic fibroblasts) and MCF-12F (human breast epithelial cells) were used as models for healthy tissue. The MCF-7 and MDA-MB-231 cell lines were used as in vitro models for luminal A- and basal B-type breast cancer, respectively. Cell lines were obtained from the American Type Cultures Collection (ATCC, Manassas, VA, USA). Cells were cultured in Dulbecco modified Eagle’s medium (DMEM) supplemented with 10% fetal bovine serum (FBS), 100 U/mL penicillin, and 0.1 mg/mL streptomycin (Sigma-Aldrich, Schnelldorf, Germany) in an incubator at 37 °C, 5% CO2 and 95% humidity. Plastic flasks 75 cm^2 (Biologix, Lenexa, KS, USA) were used to grow the cells.
(§4) The antiproliferative activity testing was performed on cell cultures using the MTT-dye reduction assay. This assay is based on the metabolism of MTT to insoluble formazan by mitochondrial reductases. The formazan concentration can be determined spectrophotometrically. The measured absorption is an indicator of cell viability. Cell lines (MCF-12F, MCF-7 and MDA-MB-231) were used in the experiments. Cells were plated at a density of 1 × 10^3 cells/100 µL in each well of 96-well microplates and allowed to adhere for 24 h before treatment with test compounds. A concentration range from 4 to 1000 μM was applied for 72 h. The formazan absorption was registered using a microplate reader at λ = 540 nm. Antiproliferative activities were expressed as IC50 values (concentrations required for 50% inhibition of cell growth).

[7] = system: MCF-7 cells; test: MTT antiproliferative assay, MCF-7; assay type: cell-based, human; details: for IC50: MTT, 72 h, read-out: Mean IC50 ± SD, MCF-7; for SI (Selectivity Index), MCF-7: SI = IC50 MCF-12F/IC50 tumor cells
Procedure: as §3, §4

[8] = 3T3 NRU cytotoxicity/phototoxicity test; assay type: cell-based, mouse; details: mouse
Procedure: as §3
(§5) The cytotoxicity/phototoxicity testing was performed as described by the OECD Guidelines for the Testing of Chemicals, Section 4, Test No. 432: In Vitro 3T3 NRU Phototoxicity Test. BALB 3T3, clone A31 cells were grown in 75 cm^2 tissue culture flasks in DMEM high-glucose (4.5 g/L), 10% FBS, and antibiotics at 37.5 °C, in a humidified atmosphere under 5% CO2. Cells were plated at 1 × 10^4 cells / 100 μL culture medium in each well of 96-well microplates and allowed to adhere for 24 h before treatment with test compounds. Peptides were dissolved in DMSO and diluted with culture medium to working concentrations from 4 to 1000 μM. In phototoxicity tests, 96-well plates were irradiated (+Irr) with a dose of 2.4 J/cm^2 using an artificial solar light simulator Helios-iO (SERIC Ltd., Tokyo, Japan), and the cells were incubated for an additional 24 h. After treatment with a Neutral Red medium, washing, and application of the NR Desorb solution, the absorption was measured on a microplate reader at a wavelength of 540 nm. Cytotoxicity/phototoxicity was expressed as CC50 values (concentrations required for 50% cytotoxicity).

[9] = system: BALB 3T3 clone A31 cells; test: 3T3 NRU cytotoxicity/phototoxicity test; assay type: cell-based, mouse
Procedure: as §3, §5

[10] = system: MCF-12F cells; test: MTT antiproliferative assay, MCF-12F; assay type: cell-based, human; details: 72 h, non-tumorigenic cell line, read-out: Mean IC50 ± SD, MCF-12F
Procedure: as §3, §4

[11] = system: Escherichia coli NBIMCC 8785; assay type: cell-based; details: 20 µL per disc, 24 h
Procedure: as §1
(§6) The disk-diffusion method was used as an additional method, with the aim of determining the percent inhibition of the tested samples against the model strains. Sterile plates with LB/NB/MPA/YM agar medium were inoculated on the surface with 100 μL from each microbial culture and incubated at 30 or 37 °C for 30 min, for the suspension to penetrate the agar. After that, sterile paper discs (HiMedia, Mumbai, India) with a diameter of 6 mm were soaked with 20 µL of the peptide solutions with concentrations of 1.4 mg/mL and 10 mg/mL and placed on the agar surface. Sterile paper discs with 10% EtOH/H2O were used as a negative control, and the corresponding strain antibiotic disks (HiMedia, Mumbai, India)—as a positive control. The incubation of the plate was performed at 30/37 °C for 24 h. The antimicrobial activity was analyzed by measuring the diameter of the inhibition zones in mm. The experiments were conducted in triplicates, and the average values for the percent of inhibition as a correlation between the inhibition zone of the peptides over the inhibition zone of the antibiotic multiplied by 100 were calculated.

[12] = system: Bacillus subtilis NBIMCC 3562; assay type: cell-based; details: for Inhibition effect, B. subtilis 3562: zone of peptide over zone of antibiotic x 100; for Inhibition zone, B. subtilis 3562: 20 µL per disc, 24 h
Procedure: as §1, §6

[13] = system: Candida albicans NBIMCC 74; assay type: cell-based; details: 20 µL per disc, 24 h
Procedure: as §1, §6

[14] = system: Pseudomonas aeruginosa NBIMCC 3700; assay type: cell-based; details: for Inhibition effect, P. aeruginosa 3700: zone of peptide over zone of antibiotic x 100; for Inhibition zone, P. aeruginosa 3700: 20 µL per disc, 24 h
Procedure: as §1, §6

[15] = system: Arthrobacter oxydans NBIMCC 9333; assay type: cell-based; details: for Inhibition effect, A. oxydans 9333: zone of peptide over zone of antibiotic x 100; for Inhibition zone, A. oxydans 9333: 20 µL per disc, 24 h
Procedure: as §1, §6

SMILES: CC[C@H](C)[C@H](NC(=O)CNC(=O)[C@H](CO)NC(=O)[C@H](CC(C)C)NC(=O)[C@@H](NC(=O)[C@H](CCCNC(=N)N)NC(=O)CNC(=O)[C@@H](NC(=O)[C@H](CC(C)C)NC(=O)[C@@H]1CCCN1C(=O)[C@H](CC(C)C)NC(=O)[C@@H](N)Cc1ccccc1)[C@@H](C)CC)C(C)C)C(=O)N[C@@H](CC(C)C)C(N)=O [DTA, FLPLIG-R-VLSGIL-NH2, reference compound] (H-FLPLIGRVLSGIL-NH2)
- MIC, E. coli 8785 [1]: 320 µg/mL (≈ 229 µM)
- MBC, B. subtilis 3562 ([2]; NBIMCC 3562, 24 h): 320 µg/mL (≈ 229 µM)
- MIC, B. subtilis 3562 ([2]; NBIMCC 3562, 24 h): 80 µg/mL (≈ 57.3 µM)
- MIC, C. albicans 74 [3]: 320 µg/mL (≈ 229 µM)
- MBC, P. aeruginosa 3700 [4]: 320 µg/mL (≈ 229 µM)
- MIC, A. oxydans 9333 [5]: 80 µg/mL (≈ 57.3 µM)
- IC50 [6]: 115 ± 4.04 µM
- SI (Selectivity Index), MDA-MB-231 [6]: 1.20
- IC50 [7]: 73.2 ± 3.36 µM
- SI (Selectivity Index), MCF-7 [7]: 1.90
- CC50 [8]: 106 ± 4.18 µM
- CC50 at 24 h [8]: 105 ± 4.88 µM
- PIF (photo irritation factor) [9]: 1.01
- IC50 [10]: 139 ± 8.36 µM

SMILES: CC[C@H](C)[C@H](NC(=O)CNC(=O)[C@H](CO)NC(=O)[C@H](CC(C)C)NC(=O)[C@@H](NC(=O)[C@H](CCCN)NC(=O)CNC(=O)[C@@H](NC(=O)[C@H](CC(C)C)NC(=O)[C@@H]1CCCN1C(=O)[C@H](CC(C)C)NC(=O)[C@@H](N)Cc1ccccc1)[C@@H](C)CC)C(C)C)C(=O)N[C@@H](CC(C)C)C(N)=O [DTOrn, FLPLIG-Orn-VLSGIL-NH2] (H-FLPLIG[Orn]VLSGIL-NH2; N-terminus assumed)
- MIC, B. subtilis 3562 ([2]; broth dilution, 0 to 320 µg/mL, 24 h, NI = no inhibition monitored): 160 µg/mL (≈ 118 µM)
- MBC, B. subtilis 3562 ([2]; plated from concentrations ≥ MIC, 24 h): 320 µg/mL (≈ 236 µM)
- MIC, A. oxydans 9333 ([5]; broth dilution, 0 to 320 µg/mL, NI = no inhibition monitored): 160 µg/mL (≈ 118 µM)
- MBC, A. oxydans 9333 ([5]; plated from concentrations ≥ MIC): 160 µg/mL (≈ 118 µM)
- IC50 [6]: 303 ± 8.67 µM
- SI (Selectivity Index), MDA-MB-231 [6]: 1.01
- Inhibition zone, E. coli 8785 ([11]; peptide 1.4 mg/mL): 0.0 mm
- Inhibition zone, E. coli 8785 ([11]; peptide 10 mg/mL): 0.0 mm
- Inhibition effect, B. subtilis 3562 ([12]; 1.4 mg/mL): 0.0%
- Inhibition effect, B. subtilis 3562 ([12]; 10 mg/mL): 32.8%
- Inhibition zone, B. subtilis 3562 ([12]; peptide 1.4 mg/mL): 0.0 mm
- Inhibition zone, B. subtilis 3562 ([12]; peptide 10 mg/mL): 8.2 ± 0.3 mm
- Inhibition zone, C. albicans 74 ([13]; peptide 1.4 mg/mL): 0.0 mm
- Inhibition zone, C. albicans 74 ([13]; peptide 10 mg/mL): 0.0 mm
- Inhibition effect, P. aeruginosa 3700 ([14]; 1.4 mg/mL): 0.0%
- Inhibition effect, P. aeruginosa 3700 ([14]; 10 mg/mL): 70.6%
- Inhibition zone, P. aeruginosa 3700 ([14]; peptide 1.4 mg/mL): 0.0 mm
- Inhibition zone, P. aeruginosa 3700 ([14]; peptide 10 mg/mL): 11.3 ± 0.6 mm
- Inhibition effect, A. oxydans 9333 ([15]; 1.4 mg/mL): 0.0%
- Inhibition effect, A. oxydans 9333 ([15]; 10 mg/mL): 43.7%
- Inhibition zone, A. oxydans 9333 ([15]; peptide 1.4 mg/mL): 0.0 mm
- Inhibition zone, A. oxydans 9333 ([15]; peptide 10 mg/mL): 8.3 ± 0.6 mm
- IC50 [7]: 196 ± 3.63 µM
- SI (Selectivity Index), MCF-7 [7]: 1.56
- CC50 ([8]; cytotoxicity, no irradiation, BALB 3T3 clone A31, Neutral Red uptake, read-out: Mean CC50 ± SD, −Irr): 337 ± 7.09 µM
- CC50 at 24 h ([8]; phototoxicity, irradiated 2.4 J/cm^2, BALB 3T3 clone A31, Neutral Red uptake, read-out: Mean CC50 ± SD, +Irr): 345 ± 6.41 µM
- PIF (photo irritation factor) ([9]; PIF = CC50 −Irr/CC50 +Irr, PIF < 2 = not phototoxic): 0.98
- IC50 [10]: 306 ± 10.8 µM
